Measured values reported in patent US10568892B2, “Cycloartane tetracyclic triterpenoid compound, preparation method therefor and use thereof” (Hefei Cosource Pharmaceuticals Inc., priority 2016, dated 2020).

Test system: ventricular papillary muscle cell of guinea pig
Test: Action potential of the ventricular papillary muscle cell of guinea pig (electrophysiological recording)
Assay type: cell-based
Conditions: screening stage; for percent change in action potential duration at 0.0005 µM / percent change in action potential duration at 0.005 µM / percent change in action potential duration at 0.05 µM: Cavia porcellus, 20 min, read-out: APD, Change rate (%); for Effect on the APD value of the action potential of the papillary muscle (in words): Table 3 summary; for APD, Post-administration: about 20 min perfusion
Description: Method: One guinea pig was taken to violently hit the back of the brain such that it fainted. The common carotid artery was cut off for bleeding to kill the guinea pig. The chest was incised to expose the heart, and the ventricle was cut open along the interventricular septum to expose the lumen of the left ventricle. The papillary muscles were quickly taken out and placed in a Kreb's solution saturated with O2 (mixed gas of 95% O2 and 5% CO2) at 0° C. After the microscopic dressing, the papillary muscle specimen was fixed with a stainless steel needle on the silicone rubber at the bottom of the perfusion bath, and perfused with the oxygen-saturated Kreb's solution. The relevant parameters for perfusion: the temperature was 37±0.5° C., and the flow rate was 4 mL/min.
Cellular action potentials were recorded using a conventional electrophysiological method. The glass electrode filled with 3M KCl saturated solution and having a tip resistance of 15-30 MΩ was fixed on the microelectrode manipulator MP-2. The glass electrode was gently inserted into the superficial layer of the prepared papillary muscle specimen using a microelectrode pusher. The electrode was adjusted to provide the predetermined bioelectrical stimulation with the triple-channel SEN-7203 electronic stimulator and SS-202 J isolator. The bioelectrical signal was amplified by the MEZ-8301 amplifier and then input to the computerized electrophysiological recording and analysis system Powerlab 4/25. Subsequently, the relevant parameters of the action potential for the ventricular papillary muscle were analyzed through the analysis system. The relevant parameters for electrical stimulation: 30 ms latency, 7 ms wavewidth, 1 Hz frequency, 52.1 my stimulation intensity.
In the compound screening test stage, after the ventricular papillary muscle specimen of the guinea pig was fixed, it was first perfused with a normal Kreb's solution for about 85 minutes for stabilization, and the relevant parameters of the cellular action potential before administration were recorded at about 80 min after the start of perfusion. The three-limb tube was used to convert the perfusates containing the title compounds. The title compounds were continuously perfused for about 25 min successively with low (0.0005 μM), medium (0.005 μM), and high (0.05 μM) concentrations, respectively. At about 20 min after the start of drug perfusions at different concentrations, the relevant parameters of the action potentials for the ventricular papillary muscle of guinea pig were observed and recorded, respectively. The normal Kreb's solution was used to perfuse and elute for about 25 min during the intervals between drug perfusions at different concentrations.
The experiment was divided into the following five groups with 6 animals in each group: a vehicle control group, a 369 low dose (0.0005 μM) group, a 369 medium dose (0.005 μM) group, a 369 high dose (0.05 μM) group, and an amiodarone (10 μM) positive control group. After the ventricular papillary muscle specimen of the guinea pig was fixed, it was first perfused with a normal Kreb's solution for about 85 minutes for stabilization, and the relevant parameters of the cellular action potential before administration were recorded at about 80 min after the start of perfusion. According to groups, the three-limb tube was configured to convert the perfusates containing the vehicle, positive control, or Compound 369 at the corresponding concentrations to continuously perfuse for about 25 min. At about 20 min after the start of the perfusions, the relevant parameters of the action potentials for the ventricular papillary muscle of guinea pig were observed and recorded.

SMILES	percent change in action potential duration at 0.0005 µM (0.0005 μM)	percent change in action potential duration at 0.005 µM (0.005 μM)	Effect on the APD value of the action potential of the papillary muscle (in words)	APD, Post-administration (0.0005 μM)	APD, Post-administration (0.005 μM)	percent change in action potential duration at 0.05 µM (0.05 μM)	APD, Post-administration (0.05 μM)
CC(=O)C1=CC[C@@]2(C)[C@@H]3CC[C@H]4C(C)(C)[C@@H](N(C)C)CC[C@@]45C[C@@]35CC[C@]12C [Compound 383, (3β,5α)-4,4,14-trimethyl-3-(dimethylamino)-9,19-cyclopregnan-16-en-20-one]	16.3%	29%	a certain degree of prolonged effects	0.0943	0.1024	–	–
CN[C@H]1CC[C@]23C[C@]24CC[C@]2(C)C(C(C)=O)=C(C)C[C@@]2(C)[C@@H]4CC[C@H]3C1(C)C [Compound 383a, (3β,5α)-4,4,14,16-tetramethyl-3-(methylamino)-9,19-cyclopregnan-16-en-20-one]	4.02%	33%	a certain degree of prolonged effects	0.0751	0.0943	30%	0.0948
CN[C@H]1CC[C@]23C[C@]24CC[C@]2(C)C(/C(C)=N\O)=CC[C@@]2(C)[C@@H]4CC[C@H]3C1(C)C [Compound 384, (3β,5α)-4,4,14-trimethyl-3-(methylamino)-9,19-cyclopregnan-16-en-20-one oxime]	21.2%	38.6%	a certain degree of prolonged effects	0.0890	0.0988	41.3%	0.1047
CN[C@H]1CC[C@]23C[C@]24CC[C@]2(C)C(C(=O)CO)=CC[C@@]2(C)[C@@H]4CC[C@H]3C1(C)C [Compound 385, (3β,5α)-4,4,14-trimethyl-21-hydroxy-3-(methylamino)-9,19-cyclopregnan-16-en-20-one]	16.4%	27.4%	a certain degree of prolonged effects	0.0796	0.0893	40.1%	0.975
CN[C@H]1CC[C@]23C[C@]24CC[C@]2(C)C(C(C)=O)=C(F)C[C@@]2(C)[C@@H]4CC[C@H]3C1(C)C [Compound 387, (3β,5α)-4,4,14-trimethyl-16-fluoro-3-(methylamino)-9,19-cyclopregnan-16-en-20-one]	8.49%	19.8%	a certain degree of prolonged effects	0.0869	0.0944	24.2%	0.0985
CCN(C)[C@H]1CC[C@]23C[C@]24CC[C@]2(C)C(C(C)=O)=CC[C@@]2(C)[C@@H]4CC[C@H]3C1(C)C [Compound 397, (3β,5α)-4,4,14-trimethyl-3-(methylethylamino)-9,19-cyclopregnan-16-en-20-one]	7.68%	-3%	–	0.0785	0.0711	11.8%	0.0841
CN[C@H]1CC[C@]23C[C@]24CC[C@]2(C)C(/C(C)=N\OC)=CC[C@@]2(C)[C@@H]4CC[C@H]3C1(C)C [Compound 398, (3β,5α)-4,4,14-trimethyl-3-(methylamino)-20-methoxyimino-9,19-cyclopregnan-16-ene]	-0.86%	6.63%	–	0.0695	0.771	9.46%	0.764
CN(C)[C@H]1CC[C@]23C[C@]24CC[C@]2(C)C(C(=O)CO)=CC[C@@]2(C)[C@@H]4CC[C@H]3C1(C)C [Compound 399a, (3β,5α)-4,4,14-trimethyl-21-hydroxy-3-(dimethylamino)-9,19-cyclopregnan-16-en-20-one]	24.4%	28.5%	a certain degree of prolonged effects	0.0960	0.1010	38.4%	0.1103
CC(=O)C1=CC[C@@]2(C)[C@@H]3CC[C@H]4C(C)(C)[C@@H](N(C)C5CC5)CC[C@@]45C[C@@]35CC[C@]12C [Compound 409, (3β,5α)-4,4,14-trimethyl-3-(methylcyclopropylamino)-9,19-cyclopregnan-16-en-20-one]	1.84%	3.25%	–	0.0773	0.0762	6.07%	0.0786
CN[C@H]1CC[C@]23C[C@]24CC[C@]2(C)C(C(=O)COC(C)=O)=CC[C@@]2(C)[C@@H]4CC[C@H]3C1(C)C [Compound 427, (3β,5α)-4,4,14-trimethyl-21-acetoxy-3-(methylamino)-9,19-cyclopregnan-16-en-20-one]	18.2%	20.6%	a certain degree of prolonged effects	0.0903	0.0929	42.9%	0.1073
CN[C@H]1CC[C@]23C[C@]24CC[C@]2(C)C(C(=O)COC(=O)c5ccccc5)=CC[C@@]2(C)[C@@H]4CC[C@H]3C1(C)C [Compound 489, (3β,5α)-4,4,14-trimethyl-3-(methylamino)-21-(benzoyloxy)-9,19-cyclopregnan-16-en-20-one]	-2.09%	1.85%	–	0.0750	0.0771	9.63%	0.820
